In patent publication US10556008B2, “Methods of treatment of keloid using an anti-VEGF agent” (priority 2012, dated 2020):
Entries after “also recorded” stand apart in the source; their conditions may differ.

Columns and labels:
[1] = system: pterygium recurrence; experiment: Treatment of pterygium recurrence after pterygiectomy with bevacizumab, with or without combination therapy (Patients 1-5); assay type: in vivo, human; conditions: for Time without recurrence of pterygium: steroid and NSAID; for No pterygium regrowth observed as of (time after surgery): after third surgical removal and conjunctival grafting; for No pterygium regrowth observed as of (time after surgery) / No regrowth of pterygium observed as of (time after surgery): bevacizumab injections, NSAID eye drops; for No regrowth of pterygium observed as of (time after surgery): steroid eye drops
Excerpt: A topical anesthetic (proparacaine 0.5% eye drops or Alcaine manufactured by Alcon Laboratories Inc.) was applied to the eye following recent pterygiectomy (from ˜5 days to 2 months following surgery). The patients were examined to identify vascular growth on eye conjunctiva. […] If blood was present (indicating presence of blood vessel), the syringe needle was withdrawn. […] If bleeding occurred (e.g., in the form of subconjunctival or subcutaneous hematoma), tamponade with Q-Tips® was performed until bleeding stopped; then injection was resumed.
Anti-inflammatory steroid drops (prednisolone acetate 1% (Allergan)) were given for 6 weeks with frequency range from once a day to 4 times a day (every 6 hours) to every hour (24 drops/day). NSAID eye drops (Diclofenac 0.1% (Bausch and Lomb)) drops (1 mg/mL to 100 mg/mL) were given multiple times, 4 times a day every 6 hours for 3 to 6 months.
Patients were followed up to monitor for appearance of new blood vessel growth in the eye.
Five patients (Patients 1-5) underwent surgery to remove primary pterygium (pterygiectomy) from the cornea of one or both eyes followed by conjunctival grafting were treated as described below.

[2] = system: recurrent pterygium; conditions: bevacizumab not as part of the combination therapy; temporarily = e.g. 6 months or less; cited from earlier work
[3] = commercially available topical steroids (skin); cited from earlier work

Row | Molecule | Time without recurrence of pterygium ([1]; FIG. 2 (Patient 2), combination therapy of bevacizumab) [months] | Time without recurrence of pterygium ([1]; FIG. 4 (Patient 4), combination therapy of bevacizumab) [months] | Time without recurrence of pterygium ([1]; FIG. 5 (Patient 5), combination therapy of bevacizumab) [months] | Time without recurrence of pterygium ([1]; FIGS. 3A, 3B (Patient 3), combination therapy of bevacizumab) [months] | Pterygium Recurrence ([1]; Patient 1, Right eye, bevacizumab + steroid (injected and/or eye drops) + topical NSAID eye drops) | No pterygium regrowth observed as of (time after surgery) ([1]; Patient 1 right eye, bevacizumab+Kenalog injection) | Pterygium Recurrence ([1]; Patient 2, Left eye, bevacizumab + steroid (injected and/or eye drops) + topical NSAID eye drops) | No pterygium regrowth observed as of (time after surgery) ([1]; Patient 2 left eye, bevacizumab and Kenalog injections) | Pterygium recurrence after bevacizumab injection alone ([1]; Patient 2 left eye, single bevacizumab injection on Day 17 after second surgical removal, no steroid or NSAID) | Pterygium Recurrence ([1]; Patient 3 (number not printed in row), Left Eye, bevacizumab + steroid (Kenalog injection), no NSAID) | Pterygium Recurrence ([1]; Patient 3 (number not printed in row), Right Eye, bevacizumab + steroid + topical NSAID eye drops) | No regrowth of pterygium observed as of (time after surgery) ([1]; Patient 3 right eye, after surgical removal and amniotic membrane grafting) | Pterygium Recurrence ([1]; Patient 4, Right Eye, bevacizumab + steroid + topical NSAID eye drops) | No regrowth of pterygium observed as of (time after surgery) ([1]; Patient 4 right eye, after first surgical procedure, bevacizumab and Kenalog injections) | Pterygium Recurrence ([1]; Patient 5, Right Eye, bevacizumab + steroid + topical NSAID eye drops) | Pterygium regrowth (overall conclusion) ([1]; combination therapy of bevacizumab, anti-inflammatory steroid (injected or topical) and topical NSAID, Patients 1-5) | Combination therapy compared with bevacizumab alone ([1]; combination therapy of bevacizumab, anti-inflammatory steroid and topical NSAID vs bevacizumab alone) | Effect on recurrent pterygium reported in the literature [2] | Potency [3]
1 | Bevacizumab: 149-Kd full length humanized anti-vascular endothelial growth factor (anti-VEGF) antibody | > 8 | > 9 | > 3 | > 6 | No | about 520 days | No | about 240 days | further recurrence of the pterygium | completely regrew and Yes | No | about 130 days | No | about 250 days | No | inhibited | superior | not effective or only temporarily effective; also recorded: temporary treatment | –
2 | CCCCC(=O)O[C@]1(C(=O)CO)[C@@H](C)C[C@H]2[C@@H]3CCC4=CC(=O)C=C[C@]4(C)[C@@]3(F)[C@@H](O)C[C@@]21C [Betamethasone valerate] | – | – | – | – | – | – | – | – | – | – | – | – | – | – | – | – | – | – | Medium-Low
3 | CC(=O)OCC(=O)[C@@]12OC3(CCCC3)O[C@@H]1C[C@H]1[C@@H]3CCC4=CC(=O)C=C[C@]4(C)[C@@]3(F)[C@@H](O)C[C@@]12C [Amcinonide] | – | – | – | – | – | – | – | – | – | – | – | – | – | – | – | – | – | – | High
